For one data set, the system named is gastric cancer. The following applies: fluorouracil chemotherapy, GCa patients; cited from earlier work.
In data set [1] the test system is human stomach gastric carcinoma (SNU-1) xenograft. Description: human-tumor xenograft in athymic nude mice. Format: in vivo. Conditions: I.P., 5-FU 5 mg/kg, Exe 100 mg/kg, 3 times/wk for 4-wks. In general terms: In xenograft studies the graft and the host belong to different species.

As to `O=c1[nH]cc(F)c(=O)[nH]1` [5-FU, fluorouracil], the “toxicity (patients with other gastrointestinal malignancies)” value with gastric cancer is on record as above 50 % patients. In addition, in data set [1], the tumor growth entry is given as “suppress”.

The record behind these values is patent US20200016173A1 (CHINA MEDICAL UNIVERSITY, priority 2016, published 2020).
